Assay [1] deals with Mus musculus. The experiment in a line: The compound was evaluated for improvement of anoxic amnesia in mice after ip administration at 50 mg/kg dose; 53, -8, 102. The format is functional. Conditions: route intraperitoneal.
The test system of assay [2] is Mus musculus. Kind of assay: Evaluated for hypoxic survival activity in mice after intraperitoneal administration at 100 mg/kg dose; 95-95. The format is functional. Conditions: ip.
Assay [3] deals with Mus musculus. Kind of assay: The compound was evaluated for improvement of anoxic amnesia in mice after ip administration at 10 mg/kg dose. The assay is classed as functional. The conditions noted are these: route intraperitoneal.
Assay [4] relates to Mus musculus. Kind of assay: Evaluated for hypoxic survival activity in mice after intraperitoneal administration at 10 mg/kg dose; 45-55. The assay is classed as functional. Conditions: ip.
The subject of assay [5] is Mus musculus. The experiment in a line: Evaluated for hypoxic survival activity in mice after intraperitoneal administration at 10 mg/kg dose; 50-80. The assay is classed as functional. The conditions noted are these: ip.
For assay [6], the system named is Mus musculus. The experiment in a line: The compound was evaluated for improvement of anoxic amnesia in mice after ip administration at 10 mg/kg dose; Inactive. The format is functional, organism-based. The arrangement: dose 10 mg/kg.
In assay [7] the test system is Mus musculus. Kind of assay: Evaluated for hypoxic survival activity in mice after intraperitoneal administration at 10 mg/kg dose; 40-55. Conditions: ip. The format is functional.
Assay [8] deals with Mus musculus. The experiment in a line: The compound was evaluated for improvement of anoxic amnesia in mice after ip administration at 50-200 mg/kg dose; Inactive. The format is functional, organism-based.
The test system of assay [9] is Mus musculus. Kind of assay: Evaluated for hypoxic survival activity in mice after intraperitoneal administration at 100 mg/kg dose. The conditions noted are these: ip. The assay is classed as functional.
In assay [10] the test system is Mus musculus. The experiment in a line: Evaluated for hypoxic survival activity in mice after intraperitoneal administration at 10 mg/kg dose. The assay is classed as functional. The conditions noted are these: ip.
For assay [11], the system named is Mus musculus. The experiment in a line: The compound was evaluated for improvement of anoxic amnesia in mice after ip administration at 50 mg/kg dose; 33-76. The format is functional. The conditions noted are these: route intraperitoneal.
Assay [12] has as its system Mus musculus. The experiment in a line: Evaluated for hypoxic survival activity in mice after po administration of 100 mg/kg dose. The format is functional.
Assay [13] deals with Mus musculus. Kind of assay: Evaluated for hypoxic survival activity in mice after intraperitoneal administration at 100 mg/kg dose; 45-70. The assay is classed as functional. The conditions noted are these: ip.
Assay [14] relates to Mus musculus. Kind of assay: Evaluated for hypoxic survival activity in mice after intraperitoneal administration at 50 mg/kg dose. The assay is classed as functional. The conditions noted are these: ip.
Assay [15] has as its system Mus musculus. Kind of assay: The compound was evaluated for improvement of anoxic amnesia in mice after ip administration at 10 mg/kg dose; 74-(-19). The format is functional. Conditions: route intraperitoneal.
The test system of assay [16] is Mus musculus. Kind of assay: Evaluated for hypoxic survival activity in mice after intraperitoneal administration at 10 mg/kg dose; 50-50. The format is functional. The conditions noted are these: ip.
The subject of assay [17] is Mus musculus. Kind of assay: The compound was evaluated for improvement of anoxic amnesia in mice after ip administration at 50 mg/kg dose. The format is functional. The conditions noted are these: route intraperitoneal.
Assay [18] deals with Mus musculus. Kind of assay: Evaluated for hypoxic survival activity in mice after intraperitoneal administration at 25 mg/kg dose; 55-65. The assay is classed as functional. The conditions noted are these: ip.
Assay [19] deals with Mus musculus. The experiment in a line: Evaluated for hypoxic survival activity in mice after intraperitoneal administration at 25 mg/kg dose; 5-55. The assay is classed as functional. The conditions noted are these: ip.
For assay [20], the system named is Mus musculus. Kind of assay: Evaluated for hypoxic survival activity in mice after intraperitoneal administration at 0.125 mg/kg dose; 60-80. The format is functional. Conditions: ip.
For assay [21], the system named is Mus musculus. Kind of assay: Evaluated for hypoxic survival activity in mice after intraperitoneal administration at 100 mg/kg dose; 40-40. Conditions: ip. The format is functional.
For assay [22], the system named is Mus musculus. The experiment in a line: Evaluated for hypoxic survival activity in mice after intraperitoneal administration at 100 mg/kg dose; 65-80. Conditions: ip. The format is functional.
Assay [23] deals with Mus musculus. Kind of assay: Evaluated for hypoxic survival activity in mice after intraperitoneal administration at 100 mg/kg dose; 5-45. The format is functional. The conditions noted are these: ip.
The test system of assay [24] is Mus musculus. Kind of assay: Evaluated for hypoxic survival activity in mice after intraperitoneal administration at 100 mg/kg dose; 35-50. The format is functional. Conditions: ip.
For assay [25], the system named is Mus musculus. Kind of assay: The compound was evaluated for improvement of anoxic amnesia in mice after ip administration at 100 mg/kg dose. The format is functional. Conditions: route intraperitoneal.
Assay [26] has as its system Mus musculus. The experiment in a line: Evaluated for hypoxic survival activity in mice after intraperitoneal administration at 50 mg/kg dose; 35-50. The assay is classed as functional. Conditions: ip.
Assay [27] concerns Mus musculus. The experiment in a line: Evaluated for hypoxic survival activity in mice after intraperitoneal administration at 25 mg/kg dose; 25-55. The format is functional. The conditions noted are these: ip.
Assay [28] deals with Mus musculus. Kind of assay: Evaluated for hypoxic survival activity in mice after intraperitoneal administration at 100 mg/kg dose; 30-95. The format is functional. The conditions noted are these: ip.
In assay [29] the test system is Mus musculus. The experiment in a line: The compound was evaluated for improvement of anoxic amnesia in mice after ip administration at 25 mg/kg dose. The assay is classed as functional. Conditions: route intraperitoneal.
Assay [30] deals with Mus musculus. Kind of assay: The compound was evaluated for improvement of anoxic amnesia in mice after ip administration at 100 mg/kg dose; Inactive. The format is functional, organism-based. More on the design: dose 100 mg/kg.
The test system of assay [31] is Mus musculus. Kind of assay: Evaluated for hypoxic survival activity in mice after intraperitoneal administration at 100 mg/kg dose; 55-80. The conditions noted are these: ip. The format is functional.
In assay [32] the test system is Mus musculus. The experiment in a line: Evaluated for hypoxic survival activity in mice after intraperitoneal administration at 100 mg/kg dose; 15-50. The assay is classed as functional. Conditions: ip.

The source of these data is ChEMBL document CHEMBL1150470, “The synthesis and cognition enhancing effects of a series of dibenzoyl guanidines. Analogs of N,N-[[4-(aminocarbonyl)phenyl]carbonimidoyl]bis[benzamide]” (1992).

Activity calls are given as the source filed them. The calls are words filed in the database; no cut-off is given here.

In the assay on Mus musculus [1], `NC(=O)c1ccc(N/C(=N\C(=O)c2ccccc2)NC(=O)c2cccc(Cl)c2)cc1` yielded an Improvement of 49%. The molecule also had a survival at 100 mg/kg in the assay on Mus musculus [2] of 95%.

`COc1ccc(C(=O)/N=C(/NC(=O)c2cccc(C)c2)Nc2ccc(C(N)=O)cc2)cc1` yielded an Improvement in the assay on Mus musculus [3] of 28%. Besides, the survival at 10 mg/kg with Mus musculus [4] was 50%.

For the molecule `CCOc1cccc(C(=O)N/C(=N/C(=O)c2ccccc2)Nc2ccc(C(N)=O)cc2)c1`, the survival at 10 mg/kg in the assay with Mus musculus [5] worked out at 67%.

`CN(C)CCOc1ccc(C(=O)N/C(=N/C(=O)c2ccccc2)Nc2ccc(C(N)=O)cc2)cc1`: the Improvement result in the assay with Mus musculus [6] was “inactive”. Besides, the survival at 10 mg/kg in the assay with Mus musculus [7] amounted to 48%.

For the molecule `COc1ccc(C(=O)/N=C(/NC(=O)c2ccc(C)cc2)Nc2ccc(C(N)=O)cc2)cc1`, the Improvement entry in the assay with Mus musculus [8] was “inactive”. Also, the survival at 100 mg/kg in the assay on Mus musculus [9] stood at 43%.

On to `COc1ccc(C(=O)/N=C(/NC(=O)c2cccc(Cl)c2)Nc2ccc(C(N)=O)cc2)cc1`, for which, in the assay with Mus musculus [10], the survival at 10 mg/kg turned out to be 15%.

Turning to `NC(=O)c1ccc(N/C(=N\C(=O)c2ccc(F)cc2)NC(=O)c2cccc(Cl)c2)cc1`, the survival at 10 mg/kg in the assay on Mus musculus [10] was determined as 25%.

For `Cc1cccc(C(=O)N/C(=N/C(=O)c2ccccc2)Nc2ccc(C(N)=O)cc2)c1`, the survival at 100 mg/kg in the assay on Mus musculus [9] came to 25%.

As for `NC(=O)c1ccc(N/C(=N\C(=O)c2ccccc2)NC(=O)c2cccc(C(F)(F)F)c2)cc1`, the survival at 10 mg/kg in the assay with Mus musculus [10] was 15%.

Turning to `NC(=O)c1ccc(N/C(=N\C(=O)c2ccccc2)NC(=O)c2ccccc2)cc1`, the Improvement in the assay with Mus musculus [11] was determined as 50%. Also, the survival at 100 mg/kg in the assay with Mus musculus [12] was 48%; with Mus musculus [13], 57%.

`COc1ccc(C(=O)/N=C(/NC(=O)c2ccc(C(F)(F)F)cc2)Nc2ccc(C(N)=O)cc2)cc1` yielded a survival at 50 mg/kg in the assay with Mus musculus [14] of 55%.

For the molecule `COc1ccc(C(=O)/N=C(/NC(=O)c2ccc(OC)cc2)Nc2ccc(C(N)=O)cc2)cc1`, the survival at 10 mg/kg in the assay on Mus musculus [10] worked out at 15%.

In the assay with Mus musculus [10], `Cc1ccc(C(=O)N/C(=N/C(=O)c2ccccc2)Nc2ccc(C(N)=O)cc2)cc1` registered a survival at 10 mg/kg of 5%.

In turn, `COc1ccc(C(=O)N/C(=N/C(=O)c2ccccc2)Nc2ccc(C(N)=O)cc2)cc1` came in with an Improvement in the assay on Mus musculus [15] of 28%. In the assay on Mus musculus [16], this molecule yielded a survival at 10 mg/kg of 50%.

Regarding `NC(=O)c1ccc(N/C(=N\C(=O)c2ccccc2)NC(=O)c2ccc(Br)cc2)cc1`, the Improvement with Mus musculus [17] is given as 12%. In addition, the survival at 25 mg/kg in the assay on Mus musculus [18] turned out to be 60%.

In the assay with Mus musculus [19], `NC(=O)c1ccc(N/C(=N\C(=O)c2ccccc2)NC(=O)c2ccc(F)cc2)cc1` registered a survival at 25 mg/kg of 35%.

On to `CNC(=O)Oc1ccc2c(c1)[C@]1(C)CCN(C)[C@@H]1N2C` [PHYSOSTIGMINE], for which the survival at 0.125 mg/kg with Mus musculus [20] amounted to 60%.

`NC(=O)c1ccc(N/C(=N\C(=O)c2ccccc2)NC(=O)c2ccc(C(F)(F)F)cc2)cc1`: the survival at 100 mg/kg in the assay on Mus musculus [21] was 40%.

In turn, `CC(C)(C)c1ccc(C(=O)N/C(=N/C(=O)c2ccccc2)Nc2ccc(C(N)=O)cc2)cc1` had a survival at 100 mg/kg with Mus musculus [22] of 72%.

Consider `NC(=O)c1ccc(N/C(=N\C(=O)c2ccccc2)NC(=O)c2ccc([N+](=O)[O-])cc2)cc1`, for which the survival at 100 mg/kg with Mus musculus [23] came out at 25%.

Regarding `COc1ccc(C(=O)/N=C(/NC(=O)c2ccc(F)cc2)Nc2ccc(C(N)=O)cc2)cc1`, in the assay on Mus musculus [8], the Improvement result was “inactive”. In the assay on Mus musculus [24], this molecule gave a survival at 100 mg/kg of 42%.

In the assay with Mus musculus [25], `Cc1cccc(C(=O)/N=C(/NC(=O)c2cccc(C)c2)Nc2ccc(C(N)=O)cc2)c1` yielded an Improvement of 20%. In the assay on Mus musculus [26], this molecule returned a survival at 50 mg/kg of 40%.

Regarding `NC(=O)c1ccc(N/C(=N\C(=O)c2cccc(C(F)(F)F)c2)NC(=O)c2cccc(C(F)(F)F)c2)cc1`, the survival at 100 mg/kg with Mus musculus [9] is 5%.

`NC(=O)c1ccc(N/C(=N\C(=O)c2ccc(F)cc2)NC(=O)c2ccc(Br)cc2)cc1` registered a survival at 25 mg/kg in the assay on Mus musculus [27] of 40%.

In the assay with Mus musculus [28], `NC(=O)c1ccc(N/C(=N\C(=O)c2ccccc2)NC(=O)c2cccc([N+](=O)[O-])c2)cc1` came in with a survival at 100 mg/kg of 60%.

`NC(=O)c1ccc(N/C(=N\C(=O)c2ccccc2)NC(=O)c2ccccc2C(F)(F)F)cc1` had a survival at 10 mg/kg with Mus musculus [10] of 5%.

Take `NC(=O)c1ccc(N/C(=N\C(=O)c2ccccc2)NC(=O)c2cccc(Br)c2)cc1`: in the assay with Mus musculus [29], the Improvement worked out at 118%. Also, the survival at 10 mg/kg in the assay on Mus musculus [4] worked out at 50%.

With `NC(=O)c1ccc(N/C(=N\C(=O)c2ccc(F)cc2)NC(=O)c2cccc(F)c2)cc1`, the Improvement entry in the assay on Mus musculus [30] is “inactive”. This molecule displayed a survival at 100 mg/kg with Mus musculus [31] of 68%.

In the assay on Mus musculus [32], `N#Cc1ccc(C(=O)N/C(=N/C(=O)c2ccccc2)Nc2ccc(C(N)=O)cc2)cc1` gave a survival at 100 mg/kg of 38%.
